Laboratory results: article PMC6315989, “Red-Shifted FRET Biosensors for High-Throughput Fluorescence Lifetime Screening” (Biosensors, 2018)
“And” between values parts separate entries of the source, which are not always exact repeats. Equal values may be shown once.

Assays:
SERCA2a = molecular target: T1, SERCA2a (Sus scrofa, UniProt P11607); experiment: Enzyme-coupled NADH-linked SERCA ATPase activity assay, cardiac SR vesicles; assay type: biochemical, pig
T1 construct: rabbit skeletal muscle (SERCA1a) and pig cardiac muscle (SERCA2a); from tissue; host or cells: pig cardiac muscle sarcoplasmic reticulum vesicles
Method: (§1) Functional assays were performed using sarcoplasmic reticulum vesicles prepared from rabbit skeletal muscle (SERCA1a) and pig cardiac muscle (SERCA2a). An enzyme-coupled, NADH-linked ATPase assay was used to measure SERCA ATPase activity in 96-well microplates. Each well contained 50 mM MOPS (pH 7.0), 100 mM KCl, 5 mM MgCl2, 1 mM EGTA, 0.2 mM NADH, 1 mM phosphoenol pyruvate, 10 IU/mL of pyruvate kinase, 10 IU/mL of lactate dehydrogenase, 1 µM of the calcium ionophore A23187 from Sigma (St. Louis, MO, USA), and CaCl2 added to set free [Ca^2+] to 10 μM [23]; 4 μg/mL of SR vesicle, calcium, compound, and assay mix were incubated for 20 min. The assay was started upon the addition of ATP, at a final concentration of 5 mM (total volume to 200 μL), and the rate of decrease in NADH absorbance at 340 nm was determined using a SpectraMax Plus microplate spectrophotometer (Molecular Devices, Sunnyvale, CA, USA).

[1] = molecular target: T2, human cardiac calcium pump (SERCA2a) (Homo sapiens, UniProt P16615); experiment: 2CS (O/M, OFP/MFP) red-shifted FRET fluorescence lifetime biosensor in living HEK293 cells; assay type: cell-based
Method: (§2) HEK293 (originally derived from human embryonic kidney) cells were maintained in phenol red-free DMEM from Gibco (Waltham, MA, USA) supplemented with 2 mM GlutaMAX (Gibco), 10% fetal bovine serum (FBS), from Atlanta Biologicals (Lawrenceville, GA, USA), and 1 IU/mL penicillin/streptomycin (Gibco) and grown at 37 °C with 5% CO2. HEK293 cell lines were used to generate stable clones overexpressing the FRET-based biosensors (containing both donor and acceptor) and corresponding donor-only and acceptor-only control cell lines. Three days prior to screening, the stable cell lines were expanded into T225 flasks from Corning Inc. (Corning, NY, USA). On each day of screening and FRET hit retesting, approximately 30 million cells were harvested by treatment of Tryple from Invitrogen (Carlsbad, CA, USA), washed three times in phosphate buffer solution (PBS) with no magnesium or calcium from Thermo Scientific (Waltham, MA, USA) by centrifugation at 300 g, filtered using 70 µm cell strainers (Corning), and diluted to 10^6 cells/mL using an automated countess cell counter (Invitrogen). On each day of screening, cell viability was assessed using the trypan blue assay and found to be above 95% viable. After resuspension and dilution in PBS, the cells were continuously and gently stirred using a magnetic stir bar at room temperature, keeping the cells in suspension and evenly distributed to avoid clumping. Subcellular localization of each biosensor was evaluated using an Olympus FluoView FV1000 IX2 (Tokyo, Japan) Inverted Confocal microscope with FLIM detector. GFP and RFP signals were assessed using 473 and 561 nm laser excitation, respectively. Cell nuclei were identified by staining with DAPI, using 405 nm laser excitation.
(§3) Cells and compound mixtures were dispensed into 1536-well flat, black-bottom polypropylene plates from Greiner (Kremsmünste, Austria). Compounds were dispensed using either an automated Echo acoustic liquid dispenser from Labcyte (Sunnyvale, CA, USA) or a Mosquito liquid dispenser from TTP Labtech (Melbourn, UK). Cells were dispensed at room temperature using a Multidrop Combi liquid dispenser from Thermo (Pittsburg, PA, USA), at a density of 10^6 cells/mL, either 30 or 120 min before screening. For screening, cells were dispensed into assay plates containing the 1280-compund LOPAC (Library of Pharmacologically Active Compounds, from Invitrogen), dissolved in DMSO. The final DMSO concentration was <1%, and control wells were prepared containing cells and matching [DMSO]. The same methods were applied for subsequent FRET testing of the reproducible hits identified in the pilot screen. Reproducible FRET hits for retesting were purchased from Tocris (Minneapolis, MN, USA) or Invitrogen (Carlsbad, CA, USA), depending on their availability.
(§4) An in-depth description of the fluorescence instrumentation has previously been described in detail and can be found in our previous publication. The current instrument has been updated to a high-density microplate format (1536 wells, 5 μL/well), acquiring data from a full plate in less than three minutes with lifetime measurement precision (standard deviation/mean) of 1% or better. Fluorescence decay waveforms (with upper-end specifications of […] resolution, 640 data points over 128 ns range) for FLT determination were detected directly as previously described, except that two different light sources were used for GFP and OFP. In both cases, fluorescence was excited with a pulsed microchip laser producing nanosecond-wide pulses. As previously described for GFP, a 473 nm laser (Bright Solutions, Via degli Artigiani, Italy) was used, delivering pulses of ~1 μJ energy at a 5 kHz repetition rate. For OFP, a 532 nm laser (Teem Photonics SNG-20F-100, Meylan, France) was used, delivering pulses of ~0.3 μJ energy at a 20 kHz repetition rate. […]

[2] = molecular target: T2, human cardiac calcium pump (SERCA2a); experiment: 2CS (G/R, GFP/RFP) FRET fluorescence lifetime biosensor in living HEK293 cells; assay type: cell-based; parameters: expressed in transfected cells
Method: as §2, §3, §4

SERCA1a = molecular target: T3, SERCA1a (Oryctolagus cuniculus, UniProt P04191); experiment: Enzyme-coupled NADH-linked SERCA ATPase activity assay, skeletal SR vesicles; assay type: biochemical, rabbit
T3 construct: sarcoplasmic reticulum vesicles prepared from rabbit skeletal muscle (SERCA1a); from tissue; host or cells: rabbit skeletal muscle sarcoplasmic reticulum vesicles
Method: as §1

[3] = test system: donor-only controls and donor-acceptor "null" linker constructs; experiment: Control biosensors (donor-only 1CS and donor-acceptor null linker) lifetime CRC in HEK293 cells; assay type: cell-based, human; details: G/R and O/M control cell lines
Method: HEK293 (originally derived from human embryonic kidney) cells were maintained in phenol red-free DMEM from Gibco (Waltham, MA, USA) supplemented with 2 mM GlutaMAX (Gibco), 10% fetal bovine serum (FBS), from Atlanta Biologicals (Lawrenceville, GA, USA), and 1 IU/mL penicillin/streptomycin (Gibco) and grown at 37 °C with 5% CO2. HEK293 cell lines were used to generate stable clones overexpressing the FRET-based biosensors (containing both donor and acceptor) and corresponding donor-only and acceptor-only control cell lines. Three days prior to screening, the stable cell lines were expanded into T225 flasks from Corning Inc. (Corning, NY, USA). […] On each day of screening, cell viability was assessed using the trypan blue assay and found to be above 95% viable. […] Subcellular localization of each biosensor was evaluated using an Olympus FluoView FV1000 IX2 (Tokyo, Japan) Inverted Confocal microscope with FLIM detector. GFP and RFP signals were assessed using 473 and 561 nm laser excitation, respectively. […]
An in-depth description of the fluorescence instrumentation has previously been described in detail and can be found in our previous publication. […] Fluorescence decay waveforms (with upper-end specifications of […] resolution, 640 data points over 128 ns range) for FLT determination were detected directly as previously described, except that two different light sources were used for GFP and OFP. In both cases, fluorescence was excited with a pulsed microchip laser producing nanosecond-wide pulses. […] These filters were selected to exclude acceptor fluorescence, as only the lifetime of the donor fluorescent protein is required to calculate FRET (Equation (1)). […] The observed time-resolved fluorescence waveform was analyzed as described previously, assuming a single-exponential decay, to determine the fluorescence lifetimes (FLT) for control samples containing donor only (τD) and FRET biosensor samples containing donor plus acceptor (τDA). FRET efficiency was calculated from (1) FRET=1−(τDA/τD) […]

[4] = LOPAC hits, 16-point CRC, Hill fit, apparent EC50 for FPL 64176 (no saturation), read-out: EC50 of lifetime change, 2CS (OFP/MFP)
[5] = LOPAC hits, 16-point CRC, Hill fit, apparent EC50 for FPL 64176 (no saturation), read-out: EC50 of lifetime change, 2CS (GFP/RFP)
[6] = known SERCA inhibitors, concentration-response curve, live HEK293 cells, 532 nm excitation, read-out: EC50 of lifetime change, h2CS2a (O/M)
[7] = mean ± SD, concentration-response curve
[8] = known SERCA inhibitors, concentration-response curve, live HEK293 cells, 473 nm excitation, read-out: EC50 of lifetime change, h2CS2a (G/R)

T3 sequence (P04191 1-994 isoform P04191-2): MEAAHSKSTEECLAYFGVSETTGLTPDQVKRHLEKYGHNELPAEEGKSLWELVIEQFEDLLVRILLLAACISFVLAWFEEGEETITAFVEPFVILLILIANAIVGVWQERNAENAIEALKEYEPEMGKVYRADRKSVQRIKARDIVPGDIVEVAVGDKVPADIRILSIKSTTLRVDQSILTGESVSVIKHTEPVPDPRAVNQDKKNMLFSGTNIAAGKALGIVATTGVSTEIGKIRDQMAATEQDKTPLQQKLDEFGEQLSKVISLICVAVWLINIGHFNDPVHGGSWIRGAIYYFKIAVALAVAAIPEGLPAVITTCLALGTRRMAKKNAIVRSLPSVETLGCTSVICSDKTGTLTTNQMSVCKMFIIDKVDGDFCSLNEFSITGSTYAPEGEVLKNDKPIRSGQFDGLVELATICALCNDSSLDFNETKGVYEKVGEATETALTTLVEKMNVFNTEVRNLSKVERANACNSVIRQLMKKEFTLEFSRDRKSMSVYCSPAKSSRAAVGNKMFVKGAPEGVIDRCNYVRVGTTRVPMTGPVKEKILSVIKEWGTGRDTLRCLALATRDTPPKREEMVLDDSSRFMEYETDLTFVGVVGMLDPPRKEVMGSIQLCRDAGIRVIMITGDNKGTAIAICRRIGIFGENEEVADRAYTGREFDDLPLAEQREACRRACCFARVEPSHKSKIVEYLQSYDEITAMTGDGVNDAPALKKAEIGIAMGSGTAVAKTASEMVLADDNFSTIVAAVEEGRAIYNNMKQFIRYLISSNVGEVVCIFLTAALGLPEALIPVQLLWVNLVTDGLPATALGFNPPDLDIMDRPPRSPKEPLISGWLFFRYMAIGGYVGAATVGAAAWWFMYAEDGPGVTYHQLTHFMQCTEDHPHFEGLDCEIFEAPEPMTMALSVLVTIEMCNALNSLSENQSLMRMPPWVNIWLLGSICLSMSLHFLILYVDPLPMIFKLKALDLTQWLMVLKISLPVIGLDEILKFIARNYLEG
T1 sequence (P11607 1-997 isoform P11607-2): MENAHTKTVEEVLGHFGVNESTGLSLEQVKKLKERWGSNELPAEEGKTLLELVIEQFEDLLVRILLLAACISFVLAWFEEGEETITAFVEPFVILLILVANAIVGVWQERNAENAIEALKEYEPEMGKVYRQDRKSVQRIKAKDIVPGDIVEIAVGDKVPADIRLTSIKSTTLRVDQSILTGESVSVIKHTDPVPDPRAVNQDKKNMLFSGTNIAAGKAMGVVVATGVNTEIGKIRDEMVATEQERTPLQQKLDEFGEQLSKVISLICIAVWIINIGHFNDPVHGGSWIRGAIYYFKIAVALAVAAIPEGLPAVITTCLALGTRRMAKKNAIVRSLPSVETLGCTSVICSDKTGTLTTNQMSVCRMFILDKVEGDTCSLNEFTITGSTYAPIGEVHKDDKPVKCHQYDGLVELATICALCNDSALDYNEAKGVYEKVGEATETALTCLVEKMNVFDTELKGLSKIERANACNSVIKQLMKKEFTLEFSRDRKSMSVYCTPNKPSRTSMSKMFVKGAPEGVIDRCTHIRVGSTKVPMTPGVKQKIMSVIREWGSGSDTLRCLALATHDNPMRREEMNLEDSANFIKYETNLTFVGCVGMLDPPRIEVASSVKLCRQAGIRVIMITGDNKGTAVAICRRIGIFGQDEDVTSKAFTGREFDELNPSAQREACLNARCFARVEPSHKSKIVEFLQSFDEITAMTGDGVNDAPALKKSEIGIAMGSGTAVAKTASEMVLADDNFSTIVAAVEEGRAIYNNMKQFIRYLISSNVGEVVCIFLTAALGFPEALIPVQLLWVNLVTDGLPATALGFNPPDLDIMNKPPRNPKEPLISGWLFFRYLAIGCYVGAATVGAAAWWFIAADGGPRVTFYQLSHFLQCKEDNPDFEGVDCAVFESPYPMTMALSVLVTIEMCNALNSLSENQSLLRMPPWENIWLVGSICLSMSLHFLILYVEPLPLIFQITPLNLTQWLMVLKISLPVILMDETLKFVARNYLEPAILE
T2 sequence (P16615 1-997 isoform P16615-2): as the sequence (P11607 1-997 isoform P11607-2) above, with K371R, K403N, P538S, M570L, N576H, E667D, S713A, T865S, V889I, L963V counted along it

| Structure (SMILES) | effect on FRET/lifetime of donor-only and null-linker controls [3] | effect on Ca-dependent ATPase activity, SERCA2a (SERCA2a; CRC, free Ca2+ 10 μM) | EC50 [1, 4] | EC50 [2, 5] | effect on Ca-dependent ATPase activity, SERCA1a (SERCA1a; CRC, free Ca2+ 10 μM) | EC50 [1, 6] [µM] | EC50 [2, 8] [µM] | other results |
| --- | --- | --- | --- | --- | --- | --- | --- | --- |
| Oc1ccc2ccccc2c1SSc1c(O)ccc2ccccc12 [IPA3] | significant concentration-dependent changes in fluorescence lifetime | – | – | – | – | – | – | IC50 (SERCA2a; CRC, free Ca2+ 10 μM, read-out: apparent EC50 (IC50) of ATPase inhibition, SERCA2a): 8 µM; concentration at which FRET abruptly and significantly decreased, 2CS (O/M) ([1]; non-sigmoidal CRC): approximately 10 μM; concentration at which FRET abruptly and significantly decreased, 2CS (G/R) ([2]; non-sigmoidal CRC): approximately 10 μM; IC50 (SERCA1a; CRC, free Ca2+ 10 μM, read-out: apparent EC50 (IC50) of ATPase inhibition, SERCA1a): 9.5 µM |
| c1ccc(C(NCc2cccnc2)(c2ccccc2)c2ccccc2)cc1 [UCL 2077, 3-(triphenylmethylaminomethyl)pyridine] | no significant effect on FRET | biphasic | 7.2 µM | 13.8 µM | biphasic | – | – | compound concentration at which ATPase activity peaked, SERCA2a (SERCA2a; biphasic CRC): around 3 micromolar; compound concentration at which ATPase activity peaked, SERCA1a (SERCA1a; biphasic CRC): around 3 micromolar |
| C/C=C(/C)C(=O)O[C@H]1C(C)=C2[C@H]([C@@H]1OC(=O)CCCCCCC)[C@@](C)(OC(C)=O)C[C@H](OC(=O)CCC)[C@@]1(O)[C@H]2OC(=O)[C@@]1(C)O [thapsigargin] | – | – | – | – | – | 0.0022 ± 0.0013 | 0.0044 ± 0.0012 | lifetime change Δτ at saturating compound, h2CS2a (O/M) [1, 7]: 258 ± 12 ps; lifetime change Δτ at saturating compound, h2CS2a (G/R) [2, 7]: 136 ± 10 ps |
| COC(=O)c1c(C)[nH]c(C)c1C(=O)c1ccccc1Cc1ccccc1 [FPL 64176] | no significant effect on FRET | biphasic ATPase activation | 21.1 µM and 21 µM | 26.5 µM and 26 µM | biphasic ATPase activation | – | – | ATPase activation of SERCA2a in comparison to SERCA1a (EC50 and % change) (SERCA2a; cardiac versus skeletal isoform): significantly more effective; FRET (lifetime) response in CRC, 2CS (O/M) ([1]; 16-point CRC): did not saturate at the highest concentrations; FRET (lifetime) response in CRC, 2CS (G/R) ([2]; 16-point CRC): did not saturate at the highest concentrations |
| CC(=O)C1=C(O)[C@@H]2[C@H]3c4c[nH]c5cccc(c45)C[C@H]3C(C)(C)N2C1=O [CPA, cyclopiazonic acid] | – | – | – | – | – | 0.626 | 0.715 | – |
